Results published in ChEMBL document CHEMBL1201862, “PubChem BioAssay data set” (2004).
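Values below derive from 48-hour exposures of cells grown in 96-well plates, with endpoints linearly interpolated between the two concentrations bracketing the appropriate inhibition level. GI50 = concentration required for 50% inhibition of growth.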 Active and inactive are the calls of the source. No stated cut-off is given here; in the data, active = GI50 up to about 1.1 µM and inactive = higher.

How the values were obtained:
Test in all cases: NCI anticancer screen, dose series, 48 h
HOP-92 = tested on: HOP-92
SW-620 = tested on: SW-620
OVCAR-3 = tested on: OVCAR-3
PC-3 = tested on: PC-3
SR = tested on: SR
COLO 205 = tested on: COLO 205
UO-31 = tested on: UO-31
A549 = tested on: A549
KM12 = tested on: KM12
LOX IMVI = tested on: LOX IMVI
MDA-MB-435 = tested on: MDA-MB-435
Hs-578T = tested on: Hs-578T
OVCAR-8 = tested on: OVCAR-8
RPMI-8226 = tested on: RPMI-8226
NCI-H460 = tested on: NCI-H460
TK-10 = tested on: TK-10
786-0 = tested on: 786-0
NCI-H522 = tested on: NCI-H522
ACHN = tested on: ACHN
SF-539 = tested on: SF-539
SN12C = tested on: SN12C
RXF 393 = tested on: RXF 393
U-251 = tested on: U-251
NCI-H226 = tested on: NCI-H226
MDA-MB-231 = tested on: MDA-MB-231
SNB-75 = tested on: SNB-75
EKVX = tested on: EKVX
HL-60 = tested on: HL-60
DU-145 = tested on: DU-145
SF-295 = tested on: SF-295
HOP-62 = tested on: HOP-62
MCF7 = tested on: MCF7
NCI-H23 = tested on: NCI-H23
SF-268 = tested on: SF-268
SK-OV-3 = tested on: SK-OV-3
SK-MEL-5 = tested on: SK-MEL-5
CAKI-1 = tested on: CAKI-1
HCT-116 = tested on: HCT-116
NCI/ADR-RES = tested on: NCI/ADR-RES
IGROV-1 = tested on: IGROV-1
UACC-257 = tested on: UACC-257
T47D = tested on: T47D
CCRF-CEM = tested on: CCRF-CEM
SK-MEL-28 = tested on: SK-MEL-28
M14 = tested on: M14
A498 = tested on: A498
UACC-62 = tested on: UACC-62
BT-549 = tested on: BT-549
MOLT-4 = tested on: MOLT-4
SNB-19 = tested on: SNB-19
HCC 2998 = tested on: HCC 2998
OVCAR-4 = tested on: OVCAR-4
HT-29 = tested on: HT-29
HCT-15 = tested on: HCT-15
Malme-3M = tested on: Malme-3M
K562 = tested on: K562
OVCAR-5 = tested on: OVCAR-5
SK-MEL-2 = tested on: SK-MEL-2

## Cc1nc(C)c(N2CCN(S(N)(=O)=O)CC2)c(O)n1
HOP-92
  GI50: > 100 µM (inactive)
SW-620
  GI50: > 100 µM (inactive)
OVCAR-3
  GI50: > 100 µM (inactive)
PC-3
  GI50: > 100 µM (inactive)
SR
  GI50: > 100 µM (inactive)
COLO 205
  GI50: > 100 µM (inactive)
UO-31
  GI50: > 100 µM (inactive)
A549
  GI50: > 100 µM (inactive)
KM12
  GI50: > 100 µM (inactive)
LOX IMVI
  GI50: > 100 µM (inactive)
MDA-MB-435
  GI50: > 100 µM (inactive)
Hs-578T
  GI50: > 100 µM (inactive)
OVCAR-8
  GI50: > 100 µM (inactive)
RPMI-8226
  GI50: > 100 µM (inactive)
NCI-H460
  GI50: > 100 µM (inactive)
TK-10
  GI50: > 100 µM (inactive)
786-0
  GI50: > 100 µM (inactive)
NCI-H522
  GI50: > 100 µM (inactive)
ACHN
  GI50: > 100 µM (inactive)
SF-539
  GI50: > 100 µM (inactive)
SN12C
  GI50: > 100 µM (inactive)
RXF 393
  GI50: > 100 µM (inactive)
U-251
  GI50: > 100 µM (inactive)
NCI-H226
  GI50: > 100 µM (inactive)
MDA-MB-231
  GI50: > 100 µM (inactive)
SNB-75
  GI50: 0.101 µM (active)
EKVX
  GI50: > 100 µM (inactive)
HL-60
  GI50: > 100 µM (inactive)
DU-145
  GI50: > 100 µM (inactive)
SF-295
  GI50: > 100 µM (inactive)
HOP-62
  GI50: > 100 µM (inactive)
MCF7
  GI50: > 100 µM (inactive)
NCI-H23
  GI50: > 100 µM (inactive)
SF-268
  GI50: > 100 µM (inactive)
SK-OV-3
  GI50: > 100 µM (inactive)
SK-MEL-5
  GI50: > 100 µM (inactive)
CAKI-1
  GI50: > 100 µM (inactive)
HCT-116
  GI50: > 100 µM (inactive)
NCI/ADR-RES
  GI50: > 100 µM (inactive)
IGROV-1
  GI50: > 100 µM (inactive)
UACC-257
  GI50: > 100 µM (inactive)
T47D
  GI50: > 100 µM (inactive)
CCRF-CEM
  GI50: > 100 µM (inactive)
SK-MEL-28
  GI50: > 100 µM (inactive)
M14
  GI50: > 100 µM (inactive)
A498
  GI50: > 100 µM (inactive)
UACC-62
  GI50: > 100 µM (inactive)
BT-549
  GI50: > 100 µM (inactive)
MOLT-4
  GI50: > 100 µM (inactive)
SNB-19
  GI50: > 100 µM (inactive)
HCC 2998
  GI50: > 100 µM (inactive)
OVCAR-4
  GI50: > 100 µM (inactive)
HT-29
  GI50: > 100 µM (inactive)
HCT-15
  GI50: > 100 µM
Malme-3M
  GI50: > 100 µM (inactive)
K562
  GI50: > 100 µM (inactive)

## N#CC1=C(N)Nc2nc3ccccc3n2C1c1ccccc1 (stereo unspecified)
SW-620
  GI50: 55.6 µM (inactive)
OVCAR-3
  GI50: 30.5 µM (inactive)
PC-3
  GI50: 46.1 µM (inactive)
SR
  GI50: 83.6 µM (inactive)
COLO 205
  GI50: > 100 µM (inactive)
UO-31
  GI50: 64.3 µM (inactive)
A549
  GI50: 42 µM (inactive)
KM12
  GI50: 53.7 µM (inactive)
LOX IMVI
  GI50: 62.7 µM (inactive)
MDA-MB-435
  GI50: 45.6 µM (inactive)
Hs-578T
  GI50: 24.7 µM (inactive)
OVCAR-8
  GI50: 55.1 µM (inactive)
RPMI-8226
  GI50: 6.41 µM (inactive)
NCI-H460
  GI50: 45.7 µM (inactive)
786-0
  GI50: 34 µM (inactive)
ACHN
  GI50: 23.3 µM (inactive)
SF-539
  GI50: > 100 µM (inactive)
SN12C
  GI50: > 100 µM (inactive)
RXF 393
  GI50: 16.1 µM (inactive)
U-251
  GI50: 42.9 µM (inactive)
MDA-MB-231
  GI50: 45.9 µM (inactive)
EKVX
  GI50: 9.2 µM (inactive)
HL-60
  GI50: > 100 µM (inactive)
DU-145
  GI50: 35.3 µM (inactive)
SF-295
  GI50: 27.7 µM (inactive)
HOP-62
  GI50: 88.1 µM (inactive)
MCF7
  GI50: 97.7 µM (inactive)
NCI-H23
  GI50: > 100 µM (inactive)
SF-268
  GI50: 46.7 µM (inactive)
SK-OV-3
  GI50: 83.4 µM (inactive)
SK-MEL-5
  GI50: 37.6 µM (inactive)
CAKI-1
  GI50: 46.8 µM (inactive)
HCT-116
  GI50: 29.8 µM (inactive)
NCI/ADR-RES
  GI50: > 100 µM (inactive)
IGROV-1
  GI50: 51.5 µM (inactive)
UACC-257
  GI50: > 100 µM (inactive)
T47D
  GI50: 20.2 µM (inactive)
CCRF-CEM
  GI50: 6.44 µM (inactive)
M14
  GI50: > 100 µM (inactive)
A498
  GI50: 21.6 µM (inactive)
UACC-62
  GI50: 56.6 µM (inactive)
BT-549
  GI50: 23.8 µM (inactive)
MOLT-4
  GI50: 49 µM (inactive)
SNB-19
  GI50: > 100 µM (inactive)
OVCAR-5
  GI50: > 100 µM (inactive)
HT-29
  GI50: 33.7 µM (inactive)
SK-MEL-2
  GI50: 77.8 µM (inactive)
HCT-15
  GI50: 44.7 µM
K562
  GI50: 59.7 µM (inactive)

## COc1ccc(C(c2cc3c(cc2O)OCO3)N2CCOCC2)cc1OC (stereo unspecified)
HOP-92
  GI50: 16 µM (inactive)
SW-620
  GI50: 2.72 µM (inactive)
OVCAR-3
  GI50: 7.8 µM (inactive)
PC-3
  GI50: 11.1 µM (inactive)
SR
  GI50: 1.89 µM (inactive)
COLO 205
  GI50: 15.3 µM (inactive)
UO-31
  GI50: 11.1 µM (inactive)
A549
  GI50: 22.4 µM (inactive)
KM12
  GI50: 12.4 µM (inactive)
LOX IMVI
  GI50: 4.01 µM (inactive)
MDA-MB-435
  GI50: 11.3 µM (inactive)
Hs-578T
  GI50: 2.75 µM (inactive)
OVCAR-8
  GI50: 5.02 µM (inactive)
RPMI-8226
  GI50: 2.66 µM (inactive)
NCI-H460
  GI50: 22 µM (inactive)
TK-10
  GI50: 13.4 µM (inactive)
786-0
  GI50: 11.1 µM (inactive)
NCI-H522
  GI50: 3.28 µM (inactive)
ACHN
  GI50: 11.4 µM (inactive)
SF-539
  GI50: 14.6 µM (inactive)
SN12C
  GI50: 10.2 µM (inactive)
RXF 393
  GI50: 18.8 µM (inactive)
U-251
  GI50: 9.64 µM (inactive)
NCI-H226
  GI50: 11.1 µM (inactive)
MDA-MB-231
  GI50: 3.5 µM (inactive)
SNB-75
  GI50: 15.3 µM (inactive)
EKVX
  GI50: 19.1 µM (inactive)
HL-60
  GI50: 25.4 µM (inactive)
DU-145
  GI50: 12.1 µM (inactive)
SF-295
  GI50: 14.2 µM (inactive)
HOP-62
  GI50: 15.7 µM (inactive)
MCF7
  GI50: 12.8 µM (inactive)
NCI-H23
  GI50: 4.15 µM (inactive)
SF-268
  GI50: 10.9 µM (inactive)
SK-OV-3
  GI50: 14.1 µM (inactive)
SK-MEL-5
  GI50: 13.5 µM (inactive)
CAKI-1
  GI50: 12.8 µM (inactive)
HCT-116
  GI50: 10.9 µM (inactive)
NCI/ADR-RES
  GI50: 5.89 µM (inactive)
IGROV-1
  GI50: 14.9 µM (inactive)
UACC-257
  GI50: 15.7 µM (inactive)
T47D
  GI50: 16.9 µM (inactive)
CCRF-CEM
  GI50: 0.327 µM (active)
SK-MEL-28
  GI50: 17.5 µM (inactive)
M14
  GI50: 12.4 µM (inactive)
UACC-62
  GI50: 5.75 µM (inactive)
BT-549
  GI50: 5.28 µM (inactive)
MOLT-4
  GI50: 3.48 µM (inactive)
SNB-19
  GI50: 16.7 µM (inactive)
OVCAR-4
  GI50: 15.6 µM (inactive)
OVCAR-5
  GI50: 9.95 µM (inactive)
HT-29
  GI50: 12.9 µM (inactive)
SK-MEL-2
  GI50: 16.6 µM (inactive)
HCT-15
  GI50: 3.95 µM
Malme-3M
  GI50: 13.1 µM (inactive)
K562
  GI50: 7.6 µM (inactive)
